Assay results: patent US8945825B2, “Homogeneous activity test for determining enzymatic reactions” (Siemens Healthcare Diagnostics Products GmbH, priority 2010, dated 2015)

Experiments:
tc-FSAP = target: T1, tc-FSAP (Homo sapiens, UniProt Q14520); assay: tc-FSAP inhibition assay (LOCI signal, peptide substrate IV); type: biochemical; conditions: for signal: measured value after 15 minutes
T1 construct: directed against the light chain of FSAP; Two-chain FSAP (tc-FSAP) was prepared, as described by Kannemeier et al; made in house
T1 sequence (Q14520 314-560 limits assumed): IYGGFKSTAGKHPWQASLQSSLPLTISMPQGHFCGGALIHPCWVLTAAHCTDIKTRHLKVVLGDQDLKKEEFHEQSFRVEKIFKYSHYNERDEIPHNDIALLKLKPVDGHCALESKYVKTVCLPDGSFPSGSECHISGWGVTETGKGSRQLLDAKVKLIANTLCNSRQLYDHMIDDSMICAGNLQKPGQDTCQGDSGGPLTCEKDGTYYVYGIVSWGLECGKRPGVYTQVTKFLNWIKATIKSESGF
T1 sequence (Q14520 24-313 partner limits assumed): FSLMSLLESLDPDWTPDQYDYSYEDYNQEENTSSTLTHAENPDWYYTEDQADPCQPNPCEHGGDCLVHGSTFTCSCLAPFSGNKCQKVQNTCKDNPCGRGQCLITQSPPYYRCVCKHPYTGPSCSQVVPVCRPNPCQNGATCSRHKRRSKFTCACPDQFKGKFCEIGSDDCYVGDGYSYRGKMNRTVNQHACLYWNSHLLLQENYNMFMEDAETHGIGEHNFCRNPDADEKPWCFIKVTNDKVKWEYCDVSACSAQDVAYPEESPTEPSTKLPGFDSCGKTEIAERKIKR
Description: The kinetics of enzyme-inhibitor interaction was investigated by measuring enzyme activity as a function of the amount of inhibitor. In the tc-FSAP inhibition assays, constant amounts of enzyme (tc-FSAP, μg/mL) were preincubated with variable inhibitor concentrations (aprotinin from bovine lung, Fluka), to enable formation of the enzyme-inhibitor complex. Another assay was carried out without preincubation. The remaining protease activity was determined after adding the peptide substrate, as described in example 1.
120 μL test buffer pH 6.3, 10 μL anti-FSAP Chemibeads (200 μg/mL in test buffer), 10 μL purified tc-FSAP (10 μg/mL) and 10 μL test buffer with 0, 4.7 and 47.2 U/mL aprotinin were mixed in DIMENSION VISTA® LOCI® reaction cuvettes. Addition of 10 μL of biotinylated peptide substrate IV in test buffer and 10 μL Sensibeads (400 μg/mL in test buffer) took place without preincubation or after 10 minutes of preincubation at 37° C. The resultant LOCI® signal was measured kinetically, over a period of 15 minutes at 37° C., in a commercially available DIMENSION VISTA® LOCI® measuring unit (Siemens Healthcare Diagnostics Products GmbH) with 200 ms illumination at 680 nm and 1000 ms measuring time at 612 nm.
Another inhibitor used was a monoclonal antibody that inhibits FSAP activity (Siemens Healthcare Diagnostics Products GmbH, MAk No. 1102/570), which is directed against the light chain of FSAP and is formed by the hybridoma cell line DSM ACC2533 (see EP-A2-1334983), similarly to the assay with aprotinin.

FSAP in plasma = target: T2, FSAP in plasma (Homo sapiens, UniProt Q14520); assay: Activation of FSAP in citrate plasma with dextran sulfate as cofactor, LOCI signal; type: biochemical; conditions: Test buffer with DXS 20 μg/mL
T2 construct: from tissue; host or cells: citrate plasma
T2 sequence (Q14520 24-313): as the sequence (Q14520 24-313 partner limits assumed) above
T2 sequence (Q14520 314-560): as the sequence (Q14520 314-560 limits assumed) above
Description: Activation in the presence of dextran sulfate leads to a different signal height and signal dynamics versus the same sample, with the same FSAP concentration, but without activation by dextran sulfate (Table 4 and FIG. 2). The signal height produced by activation of the FSAP roughly corresponds to the signal of a purified tc-FSAP of equal concentration of 12 μg/mL with an enzyme activity of 1 PEU/mL (not shown).

signal (tc-FSAP; Aprotinin 4.7 U/mL, with 10 min preincubation)	signal (tc-FSAP; Aprotinin 4.7 U/mL, without preincubation)	signal (tc-FSAP; Aprotinin 47.3 U/mL, with 10 min preincubation)	signal (tc-FSAP; Aprotinin 47.3 U/mL, without preincubation)	Effect on LOCI signal of tc-FSAP (in words) (tc-FSAP; mainly after preincubation with tc-FSAP)	signal (FSAP in plasma; MW ≧ 500 kDa, peptide 10 μg/mL, incubation time 5 at +37° C.)	signal (FSAP in plasma; MW ≧ 500 kDa, peptide 10 μg/mL, incubation time 10 at +37° C.)	signal (FSAP in plasma; MW ≧ 500 kDa, peptide 10 μg/mL, incubation time 15 at +37° C.)	signal (FSAP in plasma; peptide 0 μg/mL, incubation time 5 at +37° C.)	signal (FSAP in plasma; peptide 0 μg/mL, incubation time 10 at +37° C.)	signal (FSAP in plasma; peptide 0 μg/mL, incubation time 15 at +37° C.)	Substance
15.03 kcounts	71.18 kcounts	11.77 kcounts	67.8 kcounts	strong signal-reducing effect	–	–	–	–	–	–	aprotinin
–	–	–	–	–	50.303 kcounts	106.500 kcounts	118.096 kcounts	1.166 kcounts	1.220 kcounts	1.204 kcounts	dextran sulfate sodium salt [DXS]
